Test system: HT29 human colorectal adenocarcinoma cell line
Experiment: cell proliferation assay (Cell Titer-Glo luminescent cell viability assay)
Assay type: cell-based
Details: HT-29, cell proliferative assay, HT29 cells, 72 hr treatment, values given as ranges, read-out: pIC50 (converted)
Experimental: The cell culture and proliferation assay may be carried out as follows: the HT29 human colorectal adenocarcinoma cell line (ATCC, USA) was maintained in Dulbecco's Modified Eagle's Medium (Invitrogen, USA) supplemented with 10% fetal bovine serum (JRH, USA). The cell proliferation assay was carried out with the Cell Titer-Glo luminescent cell viability assay (Promega, USA) according to the manufacture's instruction after the 72 hr treatment of the cells in the presence of the compounds. The cell viability was shown as a percentage of DMSO treated cells.

IC50	SMILES
> 10 nM	COc1cc(C(=O)NC[C@@H]2CCCN2)ccc1Nc1ncc2c(n1)N(C1CCCC1)CCC(=O)N2C [Compound 61, (S)-4-(9-cyclopentyl-5-methyl-6-oxo-6,7,8,9-tetrahydro-5H-pyrimido[4,5-b][1,4]diazepin-2-ylamino)-3-methoxy-N-(pyrrolidin-2-ylmethyl)benzamide]
> 10 nM	C=C(F)CC1CN(C2CCCC2)c2nc(Nc3ccc(C(=O)NC4CCN(C)CC4)cc3OC)ncc2N(C)C1=O (centres unmarked) [Compound 231, 4-(9-cyclopentyl-7-(2-fluoroallyl)-5-methyl-6-oxo-6,7,8,9-tetrahydro-5H-pyrimido[4,5-b][1,4]diazepin-2-ylamino)-3-methoxy-N-(1-methylpiperidin-4-yl)benzamide]
< 1 nM	COc1cc(C(=O)NN2CCN(C)CC2)ccc1Nc1ncc2c(n1)N(C1CCCCC1)CC1(CC1)C(=O)N2C [Compound 170, 4-(9′-cyclohexyl-5′-methyl-6′-oxo-5′,6′,8′,9′-tetrahydrospiro[cyclopropane-1,7′-pyrimido[4,5-b][1,4]diazepine]-2′-ylamino)-3-methoxy-N-(4-methylpiperazin-1-yl)benzamide]
3.16 to 10 nM	CC[C@]1(C)CN(C2CCCCC2)c2nc(Nc3ccc(C(=O)N[C@H]4CCCNC4)cc3OC)ncc2N(C)C1=O [Compound 151, 4-((R)-9-cyclohexyl-7-ethyl-5,7-dimethyl-6-oxo-6,7,8,9-tetrahydro-5H-pyrimido[4,5-b][1,4]diazepin-2-ylamino)-3-methoxy-N-((S)-piperidin-3-yl)benzamide]
< 1 nM	COc1cc(C(=O)NN2CCN(C)CC2)ccc1Nc1ncc2c(n1)N(C1CCCC1)CC1(CCC1)C(=O)N2C [Compound 180, 4-(9′-cyclopentyl-5′-methyl-6′-oxo-5′,6′,8′,9′-tetrahydrospiro[cyclobutane-1,7′-pyrimido[4,5-b][1,4]diazepine]-2′-ylamino)-3-methoxy-N-(4-methylpiperazin-1-yl)benzamide]
1 to 2.51 nM	COc1cc(C(=O)NC2CN(C)C2)ccc1Nc1ncc2c(n1)N(C1CCCC1)CC(C)(C)C(=O)N2C [Compound 95, 4-(9-cyclopentyl-5,7,7-trimethyl-6-oxo-6,7,8,9-tetrahydro-5H-pyrimido[4,5-b][1,4]diazepin-2-ylamino)-3-methoxy-N-(1-methylazetidin-3-yl)benzamide]
> 10 nM	COc1cc(C(=O)N[C@H]2CCN(C)C2)ccc1Nc1ncc2c(n1)N(C1CCCC1)CCC(=O)N2C [Compound 52, (S)-4-(9-cyclopentyl-5-methyl-6-oxo-6,7,8,9-tetrahydro-5H-pyrimido[4,5-b][1,4]diazepin-2-ylamino)-3-methoxy-N-(1-methylpyrrolidin-3-yl)benzamide]
1 to 2.51 nM	COc1cc(C(=O)NC2CCOCC2)ccc1Nc1ncc2c(n1)N(C1CCCC1)CC(C)(C)C(=O)N2C [Compound 94, 4-(9-cyclopentyl-5,7,7-trimethyl-6-oxo-6,7,8,9-tetrahydro-5H-pyrimido[4,5-b][1,4]diazepin-2-ylamino)-3-methoxy-N-(tetrahydro-2H-pyran-4-yl)benzamide]
1 to 2.51 nM	C=CC1(C)CN(C2CCCC2)c2nc(Nc3ccc(C(=O)N[C@H]4CCCNC4)cc3OC)ncc2N(C)C1=O (stereo partly drawn) [Compound 246, 4-(9-cyclopentyl-5,7-dimethyl-6-oxo-7-vinyl-6,7,8,9-tetrahydro-5H-pyrimido[4,5-b][1,4]diazepin-2-ylamino)-3-methoxy-N-((S)-piperidin-3-yl)benzamide]
3.16 to 10 nM	COc1cc(C(=O)N[C@@H]2CCCNC2)ccc1Nc1ncc2c(n1)N(C1CCCC1)CC1(CCC1)C(=O)N2C [Compound 181, (R)-4-(9′-cyclopentyl-5′-methyl-6′-oxo-5′,6′,8′,9′-tetrahydrospiro[cyclobutane-1,7′-pyrimido[4,5-b][1,4]diazepine]-2′-ylamino)-3-methoxy-N-(piperidin-3-yl)benzamide]
1 to 2.51 nM	COc1cc(C(=O)NC2CCN(C(C)=O)CC2)ccc1Nc1ncc2c(n1)N(C1CCCC1)CC(C)(C)C(=O)N2C [Compound 90, N-(1-acetylpiperidin-4-yl)-4-(9-cyclopentyl-5,7,7-trimethyl-6-oxo-6,7,8,9-tetrahydro-5H-pyrimido[4,5-b][1,4]diazepin-2-ylamino)-3-methoxybenzamide]
3.16 to 10 nM	COc1cc(C(=O)NCCN2CCCC2)ccc1Nc1ncc2c(n1)N(C1CCCC1)CC(C)(C)C(=O)N2C [Compound 93, 4-(9-cyclopentyl-5,7,7-trimethyl-6-oxo-6,7,8,9-tetrahydro-5H-pyrimido[4,5-b][1,4]diazepin-2-ylamino)-3-methoxy-N-(2-(pyrrolidin-1-yl)ethyl)benzamide]
1 to 2.51 nM	COc1cc(C(=O)N[C@@H]2CCCN(C)C2)ccc1Nc1ncc2c(n1)N(C1CCCCC1)CC1(CC1)C(=O)N2C [Compound 172, (R)-4-(9′-cyclohexyl-5′-methyl-6′-oxo-5′,6′,8′,9′-tetrahydrospiro[cyclopropane-1,7′-pyrimido[4,5-b][1,4]diazepine]-2′-ylamino)-3-methoxy-N-(1-methylpiperidin-3-yl)benzamide]
3.16 to 10 nM	CC[C@@]1(C)CN(C2CCCCC2)c2nc(Nc3ccc(C(=O)N[C@H]4CCCNC4)cc3OC)ncc2N(C)C1=O [Compound 149, 4-((S)-9-cyclohexyl-7-ethyl-5,7-dimethyl-6-oxo-6,7,8,9-tetrahydro-5H-pyrimido[4,5-b][1,4]diazepin-2-ylamino)-3-methoxy-N-((S)-piperidin-3-yl)benzamide]
< 1 nM	C=CC[C@H]1CN(C2CCCC2)c2nc(Nc3ccc(C(=O)N[C@H]4CCCN(C)C4)cc3OC)ncc2N(C)C1=O [Compound 198, 4-((S)-7-allyl-9-cyclopentyl-5-methyl-6-oxo-6,7,8,9-tetrahydro-5H-pyrimido[4,5-b][1,4]diazepin-2-ylamino)-3-methoxy-N-((S)-1-methylpiperidin-3-yl)benzamide]
3.16 to 10 nM	COc1cc(C(=O)NC2CCNCC2)ccc1Nc1ncc2c(n1)N(C1CCCCC1)CC(C)(C)C(=O)N2C [Compound 116, 4-(9-cyclohexyl-5,7,7-trimethyl-6-oxo-6,7,8,9-tetrahydro-5H-pyrimido[4,5-b][1,4]diazepin-2-ylamino)-3-methoxy-N-(piperidin-4-yl)benzamide]
3.16 to 10 nM	CC[C@H]1CN(C2CCCC2)c2nc(Nc3ccc(C(=O)NC4CCN(C)CC4)cc3OC)ncc2N(C)C1=O [Compound 36, (S)-4-(9-Cyclopentyl-7-ethyl-5-methyl-6-oxo-6,7,8,9-tetrahydro-5H-pyrimido[4,5-b][1,4]diazepin-2-ylamino)-3-methoxy-N-(1-methyl-piperidin-4-yl)-benzamide]
> 10 nM	COc1cc(C(=O)NC2CCNCC2)ccc1Nc1ncc2c(n1)N(C1CCCC1)CCC(=O)N2C [Compound 56, 4-(9-cyclopentyl-5-methyl-6-oxo-6,7,8,9-tetrahydro-5H-pyrimido[4,5-b][1,4]diazepin-2-ylamino)-3-methoxy-N-(piperidin-4-yl)benzamide]
< 1 nM	COc1cc(C(=O)NN2CCOCC2)ccc1Nc1ncc2c(n1)N(C1CCCC1)CC(C)(C)C(=O)N2C [Compound 104, 4-(9-cyclopentyl-5,7,7-trimethyl-6-oxo-6,7,8,9-tetrahydro-5H-pyrimido[4,5-b][1,4]diazepin-2-ylamino)-3-methoxy-N-morpholinobenzamide]
1 to 2.51 nM	COc1cc(C(=O)N[C@@H]2CCCN(C)C2)ccc1Nc1ncc2c(n1)N(C1CCCC1)CC1(CC1)C(=O)N2C [Compound 165, (R)-4-(9′-cyclopentyl-5′-methyl-6′-oxo-5′,6′,8′,9′-tetrahydrospiro[cyclopropane-1,7′-pyrimido[4,5-b][1,4]diazepine]-2′-ylamino)-3-methoxy-N-(1-methylpiperidin-3-yl)benzamide]
> 10 nM	COc1cc(C(=O)N[C@@H]2CCN(C)C2)ccc1Nc1ncc2c(n1)N(C1CCCC1)CCC(=O)N2C [Compound 51, (R)-4-(9-cyclopentyl-5-methyl-6-oxo-6,7,8,9-tetrahydro-5H-pyrimido[4,5-b][1,4]diazepin-2-ylamino)-3-methoxy-N-(1-methylpyrrolidin-3-yl)benzamide]
> 10 nM	COc1cc(C(=O)N[C@H]2CCC(=O)NC2)ccc1Nc1ncc2c(n1)N(C1CCCC1)CCC(=O)N2C [Compound 48, (S)-4-(9-cyclopentyl-5-methyl-6-oxo-6,7,8,9-tetrahydro-5H-pyrimido[4,5-b][1,4]diazepin-2-ylamino)-3-methoxy-N-(6-oxopiperidin-3-yl)benzamide]
3.16 to 10 nM	C=CC1(C)CN(C2CCCC2)c2nc(Nc3ccc(C(=O)NC4CCN(C)CC4)cc3OC)ncc2N(C)C1=O (centres unmarked) [Compound 239, 4-(9-cyclopentyl-5,7-dimethyl-6-oxo-7-vinyl-6,7,8,9-tetrahydro-5H-pyrimido[4,5-b][1,4]diazepin-2-ylamino)-3-methoxy-N-(1-methylpiperidin-4-yl)benzamide]
> 10 nM	C=C[C@@]1(C)CN(C2CCCC2)c2nc(Nc3ccc(C(=O)NN4CCN(C)CC4)cc3OC)ncc2N(C)C1=O [Compound 244, (S)-4-(9-cyclopentyl-5,7-dimethyl-6-oxo-7-vinyl-6,7,8,9-tetrahydro-5H-pyrimido[4,5-b][1,4]diazepin-2-ylamino)-3-methoxy-N-(4-methylpiperazin-1-yl)benzamide]
1 to 2.51 nM	COc1cc(C(=O)N[C@H]2CCCN(C)C2)ccc1Nc1ncc2c(n1)N(C1CCCC1)CC1(CC1)C(=O)N2C [Compound 164, (S)-4-(9′-cyclopentyl-5′-methyl-6′-oxo-5′,6′,8′,9′-tetrahydrospiro-[cyclopropane-1,7′-pyrimido[4,5-b][1,4]diazepine]-2′-ylamino)-3-methoxy-N-(1-methylpiperidin-3-yl)benzamide]
3.16 to 10 nM	C=CCC1CN(C2CCCCC2)c2nc(Nc3ccc(C(=O)N[C@@H]4CCCNC4)cc3OC)ncc2N(C)C1=O (stereo partly drawn) [Compound 191, 4-(7-allyl-9-cyclohexyl-5-methyl-6-oxo-6,7,8,9-tetrahydro-5H-pyrimido[4,5-b][1,4]diazepin-2-ylamino)-3-methoxy-N-((R)-piperidin-3-yl)benzamide]
